Measurements reported in patent publication US8501238B2, “Anti-infective agents and uses thereof” (priority 2007, dated 2013).

Legend:
[1] = system: genotype 1b-Con1 subgenomic replicon cell line; test: microbe, parasite or virus in culture; format: cell-based, HCV; details: Hepatitis C virus, 72 h, read-out: EC50 1b
[2] = target: T1, HCV polymerase 1B (Δ21 NS5B) (Hepatitis C virus genotype 1b, UniProt P26663); test: biochemical
T1 construct: 20 to 50nM Δ21 NS5B
Procedure: (§1) Either two-fold serial dilutions (fractional inhibition assay) or a narrower range of dilutions spanning the IC50 of the inhibitor (tight binding assay) of the inhibitors were incubated with 20mM Tris-Cl pH 7.4, 2 mM MnCl2, 1 mM dithiothreitol, 1 mM ethylene diamine tetraacetic acid (EDTA), 60 to 125μM GTP and 20 to 50nM Δ21 NS5B (HCV Strain 1B (BK, Genbank accession number M58335, or H77, Genbank accession number AF011751)) for 15min at room temperature. The reaction was initiated by the addition of 20μM CTP, 20μM ATP, 1μM ^3H-UTP (10mCi/umol), 5nM template RNA and 0.1 U/μl RNase inhibitor (RNasin, Promega), and allowed to proceed for 2 to 4h at room temperature. Reaction volume was 50μl. The reaction was terminated by the addition of 1 volume of 4mM spermine in 10mM Tris-Cl pH 8.0, 1mM EDTA. After incubation for at least 15 min at room temperature, the precipitated RNA was captured by filtering through a GF/B filter (Millipore) in a 96 well format. The filter plate was washed three times with 200μl each of 2mM spermine, 10mM Tris-Cl pH 8.0, lmM EDTA, and 2 times with ethanol. After air-drying, 30μl of Microscint 20 scintillation cocktail (Packard) was added to each well, and the retained cpm were determined by scintillation counting. […] Retained cpm were plotted vs. inhibitor concentration and fit to equation 1 using non-linear regression (ref. 1) to obtain the IC50 values: Retained cpm=A[sqrt{(IC50+It−Et)^2+4*IC50*Et}−([…])]
Ref. Morrison, J. F. and S. R. Stone. 1985. Approaches to the study and analysis of the inhibition of enzymes by slow- and tight-binding inhibitors. Comments Mol. Cell. Biophys. 2: 347-368.
(§2) The sequence of the template RNA used was: 5′-[…]-3′

[3] = target: T2, HCV polymerase 1A (Δ21 NS5B) (Hepatitis C virus genotype 1a, UniProt P27958); test: HCV Polymerase Inhibition Assay (1a); format: biochemical
T2 construct: 20 to 50nM Δ21 NS5B
T2 sequence (P27958 2421-2990, stated change not applied): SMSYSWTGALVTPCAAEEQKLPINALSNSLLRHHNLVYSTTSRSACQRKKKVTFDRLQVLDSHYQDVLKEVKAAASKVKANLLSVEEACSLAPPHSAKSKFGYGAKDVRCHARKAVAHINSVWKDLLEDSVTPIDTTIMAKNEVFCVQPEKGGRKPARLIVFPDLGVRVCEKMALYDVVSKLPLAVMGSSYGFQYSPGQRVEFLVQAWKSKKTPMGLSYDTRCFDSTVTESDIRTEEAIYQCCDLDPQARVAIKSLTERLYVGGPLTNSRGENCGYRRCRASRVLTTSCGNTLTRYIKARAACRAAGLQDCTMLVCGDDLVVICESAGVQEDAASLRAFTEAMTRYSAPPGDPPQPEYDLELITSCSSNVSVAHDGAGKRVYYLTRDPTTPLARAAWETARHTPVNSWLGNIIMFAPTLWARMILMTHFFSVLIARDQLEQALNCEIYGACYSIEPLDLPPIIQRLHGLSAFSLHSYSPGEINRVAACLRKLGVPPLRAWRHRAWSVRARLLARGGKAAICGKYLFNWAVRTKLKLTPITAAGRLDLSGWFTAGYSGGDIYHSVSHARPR
Procedure: as §1, with “The” for “Either two-fold serial dilutions (fractional inhibition assay) or a narrower range of dilutions spanning the IC50 of the inhibitor (tight binding assay) of the inhibitors were incubated with 20mM Tris-Cl pH 7.4, 2 mM MnCl2, 1 mM dithiothreitol, 1 mM ethylene diamine tetraacetic acid (EDTA), 60 to 125μM GTP and 20 to 50nM Δ21 NS5B (HCV Strain 1B (BK, Genbank accession number M58335, or H77, Genbank accession number AF011751)) for 15min at room temperature. The”
Ref. Morrison, J. F. and S. R. Stone. […] Approaches to the study and analysis of the inhibition of enzymes by slow- and tight-binding inhibitors. Comments Mol. Cell. Biophys.
as §2

[4] = system: genotype 1a-H77 subgenomic replicon cell line; test: microbe, parasite or virus in culture; format: cell-based, HCV; details: Hepatitis C virus, 72 h, read-out: EC50 1a

T1 sequence (P26663 2420-2989, stated change not applied): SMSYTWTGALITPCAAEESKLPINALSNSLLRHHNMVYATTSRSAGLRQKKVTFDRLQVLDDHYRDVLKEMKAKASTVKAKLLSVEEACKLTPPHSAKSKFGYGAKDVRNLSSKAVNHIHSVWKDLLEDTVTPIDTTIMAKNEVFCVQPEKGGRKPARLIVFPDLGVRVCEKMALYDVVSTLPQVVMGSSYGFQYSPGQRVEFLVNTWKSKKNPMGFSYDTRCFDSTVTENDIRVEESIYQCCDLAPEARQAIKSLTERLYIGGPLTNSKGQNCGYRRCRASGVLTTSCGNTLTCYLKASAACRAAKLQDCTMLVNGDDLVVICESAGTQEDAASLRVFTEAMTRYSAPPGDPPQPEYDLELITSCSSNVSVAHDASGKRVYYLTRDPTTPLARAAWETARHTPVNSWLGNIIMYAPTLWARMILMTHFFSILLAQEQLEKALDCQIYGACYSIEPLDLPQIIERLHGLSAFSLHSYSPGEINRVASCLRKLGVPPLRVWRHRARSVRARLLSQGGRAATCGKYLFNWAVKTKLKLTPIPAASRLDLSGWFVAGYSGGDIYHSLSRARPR

Structure (SMILES) | EC50 [1] [µM] | IC50 [2] [µM] | IC50 [3] [µM] | EC50 [4] [µM]
COc1c(-c2ccc3c(c2)CC[C@@]3(F)CNS(C)(=O)=O)cc(-n2ccc(=O)[nH]c2=O)cc1C(C)(C)C [IB-L0-2.20, (S)-N-((5-(3-tert-butyl-5-(2,4-dioxo-3,4-dihydropyrimidin-1(2H)-yl)-2-methoxyphenyl)-1-fluoro-2,3-dihydro-1H-inden-1-yl)methyl)methanesulfonamide] | 0.01 to 0.1 | 0.01 to 0.1 | < 0.01 | 0.1 to 1
COc1c(-c2ccc3nc(NS(C)(=O)=O)cnc3c2)cc(-n2ccc(=O)[nH]c2=O)cc1C(C)(C)C [IB-L0-2.26, N-(6-(3-tert-butyl-5-(2,4-dioxo-3,4-dihydropyrimidin-1(2H)-yl)-2-methoxyphenyl)quinoxalin-2-yl)methanesulfonamide] | 0.1 to 1 | 0.01 to 0.1 | 0.01 to 0.1 | > 1
COc1c(-c2ccc3nc(N)sc3c2)cc(-n2ccc(=O)[nH]c2=O)cc1C(C)(C)C [IB-L0-2.27, 1-(3-(2-aminobenzo[d]thiazol-6-yl)-5-tert-butyl-4-methoxy-phenyl)pyrimidine-2,4(1H,3H)-dione] | 0.01 to 0.1 | 0.01 to 0.1 | 0.01 to 0.1 | 0.1 to 1
COc1c(-c2ccc3nc(NS(C)(=O)=O)sc3c2)cc(-n2ccc(=O)[nH]c2=O)cc1C(C)(C)C [IB-L0-2.28, N-(6-(3-tert-butyl-5-(2,4-dioxo-3,4-dihydropyrimidin-1(2H)-yl)-2-methoxyphenyl)benzo[d]thiazol-2-yl)methanesulfonamide] | 0.1 to 1 | 0.01 to 0.1 | 0.01 to 0.1 | > 1
COc1c(-c2ccc3c(c2)CNC3=O)cc(-n2ccc(=O)[nH]c2=O)cc1C(C)(C)C [IB-L0-2.30, 1-(3-tert-butyl-4-methoxy-5-(1-oxoisoindolin-5-yl)phenyl)-pyrimidine-2,4(1H,3H)-dione] | 0.01 to 0.1 | 0.01 to 0.1 | 0.01 to 0.1 | 0.1 to 1
COc1c(-c2ccc3c(c2)CCN3S(C)(=O)=O)cc(-n2ccc(=O)[nH]c2=O)cc1C(C)(C)C [IB-L0-2.32, 1-(3-tert-butyl-4-methoxy-5-(1-(methylsulfonyl)indolin-5-yl)phenyl)pyrimidine-2,4(1H,3H)-dione] | 0.01 to 0.1 | 0.01 to 0.1 | 0.01 to 0.1 | 0.1 to 1
COc1c(-c2ccc3ncsc3c2)cc(-n2ccc(=O)[nH]c2=O)cc1C(C)(C)C [IB-L0-2.33, 1-(3-(benzo[d]thiazol-6-yl)-5-tert-butyl-4-methoxyphenyl)pyrimidine-2,4(1H,3H)-dione] | 0.1 to 1 | 0.01 to 0.1 | 0.01 to 0.1 | 0.1 to 1
COc1c(-c2ccc3nc(Cl)sc3c2)cc(-n2ccc(=O)[nH]c2=O)cc1C(C)(C)C [IB-L0-2.38, 1-(3-tert-butyl-5-(2-chlorobenzo[d]thiazol-6-yl)-4-methoxyphenyl)pyrimidine-2,4(1H,3H)-dione] | > 1 | 0.01 to 0.1 | 0.1 to 1 | > 1
COc1c(-c2ccc3c(c2)CC=C3C(C)(C)NS(C)(=O)=O)cc(-n2ccc(=O)[nH]c2=O)cc1C(C)(C)C [IB-L0-2.41, N-(2-(6-(3-tert-butyl-5-(2,4-dioxo-3,4-dihydropyrimidin-1(2H)-yl)-2-methoxyphenyl)-1H-inden-3-yl)propan-2-yl)methanesulfonamide] | 0.1 to 1 | 0.1 to 1 | 0.1 to 1 | 0.1 to 1
COc1c(-c2ccc3c(C)coc3c2)cc(-n2ccc(=O)[nH]c2=O)cc1C(C)(C)C [IB-L0-2.42, 1-(3-tert-butyl-4-methoxy-5-(3-methylbenzofuran-6-yl)phenyl)-pyrimidine-2,4(1H,3H)-dione] | 0.1 to 1 | 0.1 to 1 | 0.1 to 1 | 0.1 to 1
COc1c(-c2ccc3c(c2)CCN(NS(C)(=O)=O)C3)cc(-n2ccc(=O)[nH]c2=O)cc1C(C)(C)C [IB-L0-2.43, N-(6-(3-tert-butyl-5-(2,4-dioxo-3,4-dihydropyrimidin-1(2H)-yl)-2-methoxyphenyl)-3,4-dihydroisoquinolin-2(1H)-yl)methanesulfonamide] | 0.1 to 1 | 0.1 to 1 | 0.1 to 1 | > 1
COc1c(-c2ccc3c(CNS(C)(=O)=O)noc3c2)cc(-n2ccc(=O)[nH]c2=O)cc1C(C)(C)C [IB-L0-2.45] | 0.1 to 1 | 0.1 to 1 | 0.1 to 1 | > 1
COc1c(-c2ccc3c(c2)/C(=N/NS(C)(=O)=O)CC3)cc(-n2ccc(=O)[nH]c2=O)cc1-c1cccs1 [IB-L0-2.51, (E)-N′-(6-(5-(2,4-dioxo-3,4-dihydropyrimidin-1(2H)-yl)-2-methoxy-3-(thiophen-2-yl)phenyl)-2,3-dihydro-1H-inden-1-ylidene)methanesulfonohydrazide] | < 0.01 | 0.01 to 0.1 | < 0.01 | 0.01 to 0.1
CCC(C)(C)c1cc(-n2ccc(=O)[nH]c2=O)cc(-c2ccc3cc(NS(C)(=O)=O)ccc3c2)c1OC [IB-L0-2.52, N-(6-(5-(2,4-dioxo-3,4-dihydropyrimidin-1(2H)-yl)-2-methoxy-3-tert-pentylphenyl)naphthalen-2-yl)methanesulfonamide] | < 0.01 | 0.01 to 0.1 | < 0.01 | 0.01 to 0.1
COc1c(-c2ccsc2)cc(-n2ccc(=O)[nH]c2=O)cc1-c1ccc2cc(NS(C)(=O)=O)ccc2c1 [IB-L0-2.53, N-(6-(5-(2,4-dioxo-3,4-dihydropyrimidin-1(2H)-yl)-2-methoxy-3-(thiophen-3-yl)phenyl)naphthalen-2-yl)methanesulfonamide] | 0.01 to 0.1 | 0.01 to 0.1 | < 0.01 | 0.01 to 0.1
COc1c(-c2ccc3c(c2)/C(=N/NS(C)(=O)=O)CC3)cc(-n2ccc(=O)[nH]c2=O)cc1-c1ccco1 [IB-L0-2.55, (E)-N′-(6-(5-(2,4-dioxo-3,4-dihydropyrimidin-1(2H)-yl)-3-(furan-2-yl)-2-methoxyphenyl)-2,3-dihydro-1H-inden-1-ylidene)methanesulfonohydrazide] | < 0.01 | 0.01 to 0.1 | < 0.01 | 0.01 to 0.1
COc1c(-c2ccc3cc(NS(C)(=O)=O)ccc3c2)cc(-n2ccc(=O)[nH]c2=O)cc1C(F)(F)F [IB-L0-2.56, N-(6-(5-(2,4-dioxo-3,4-dihydropyrimidin-1(2H)-yl)-2-methoxy-3-(trifluoromethyl)phenyl)naphthalen-2-yl)methanesulfonamide] | < 0.01 | 0.01 to 0.1 | < 0.01 | 0.1 to 1
COc1c(I)cc(-n2ccc(=O)[nH]c2=O)cc1-c1ccc2cc(NS(C)(=O)=O)ccc2c1 [IB-L0-2.57, N-(6-(5-(2,4-dioxo-3,4-dihydropyrimidin-1(2H)-yl)-3-iodo-2-methoxyphenyl)naphthalen-2-yl)methanesulfonamide] | 0.01 to 0.1 | 0.01 to 0.1 | < 0.01 | 0.1 to 1
COc1c(-c2ccc3cc(NS(C)(=O)=O)ccc3c2)cc(-n2ccc(=O)[nH]c2=O)cc1-c1ccco1 [IB-L0-2.59, N-(6-(5-(2,4-dioxo-3,4-dihydropyrimidin-1(2H)-yl)-3-(furan-2-yl)-2-methoxyphenyl)naphthalen-2-yl)methanesulfonamide] | 0.01 to 0.1 | 0.01 to 0.1 | < 0.01 | 0.1 to 1
COc1c(-c2ccc3cc(NS(C)(=O)=O)ccc3c2)cc(-n2ccc(=O)[nH]c2=O)cc1-c1cccs1 [IB-L0-2.61, N-(6-(5-(2,4-dioxo-3,4-dihydropyrimidin-1(2H)-yl)-2-methoxy-3-(thiophen-2-yl)phenyl)naphthalen-2-yl)methanesulfonamide] | 0.01 to 0.1 | 0.01 to 0.1 | < 0.01 | 0.1 to 1
